Reference: US9914712B2, “Antibacterial thiazolecarboxylic acids” (priority 2013, dated 2018)
pKi: −log10 of the molar value.

Legend:
IMP-1 = target: T1, IMP-1 (Serratia marcescens, UniProt P52699); assay: In vitro MBL inhibition assay, imipenem hydrolysis (IMP-1); type: biochemical; settings: Ki IMP-1, imipenem substrate, Ki from IC50 by Cheng-Prusoff, Km 25 μM
T1 construct: made in house
Experimental: The MBL enzyme IMP-1 is produced and purified as disclosed in Laraki et al, Antimicrobial Agents & Chemotherapy, (1999), 43(4), 902-906.
(§1) Reaction buffers were prepared in a UV-transparent 96-well microplate, which buffer contains 10 mM HEPES pH 7.5, 50 μM ZnSO4, 20 μg/mL BSA. An amount of 75 ng of protein was added to each well.
(§2) Spectrophometric assays are performed to determine NDM-1/VIM-2/IMP-1 carbapenemase activity using purified proteins (50 ng for NDM-1/VIM-2, 25 ng IMP-1) from NDM-1/VIM-2/IMP-1 expressing bacteria using […] of imipenem as substrate in 10 mM HEPES pH 7.5, 50 μM ZnSO4. MBL hydrolysis is measured at 299 nm for 10 minutes at 30° C. as the absorbance changes due to the opening of beta-lactam ring of the antibiotic.
(§3) The Ki values obtained for selected example compounds are shown in Table 3, where they are compared with the values for pyridine-2-carboxylic acid.

VIM-2 = target: T2, VIM-2 (Escherichia coli, UniProt Q5U7L7); assay: In vitro MBL inhibition assay, imipenem hydrolysis (VIM-2); type: biochemical; settings: Ki VIM-2, imipenem substrate, Ki from IC50 by Cheng-Prusoff, Km 9 μM
T2 construct: made in house
Experimental: The MBL enzyme VIM-2 is produced and purified as disclosed in Borgianni et al, Antimicrobial Agents & Chemotherapy, (2010), 54(8), 3197-3204.
as §1, §2, §3

NDM-1 = target: T3, NDM-1 (Klebsiella pneumoniae, UniProt C7C422); assay: In vitro MBL inhibition assay, imipenem hydrolysis (NDM-1); type: biochemical; settings: Ki NDM-1, imipenem substrate, Ki from IC50 by Cheng-Prusoff, Km 70 μM
T3 construct: made in house
T3 sequence (C7C422 29-270 limits assumed): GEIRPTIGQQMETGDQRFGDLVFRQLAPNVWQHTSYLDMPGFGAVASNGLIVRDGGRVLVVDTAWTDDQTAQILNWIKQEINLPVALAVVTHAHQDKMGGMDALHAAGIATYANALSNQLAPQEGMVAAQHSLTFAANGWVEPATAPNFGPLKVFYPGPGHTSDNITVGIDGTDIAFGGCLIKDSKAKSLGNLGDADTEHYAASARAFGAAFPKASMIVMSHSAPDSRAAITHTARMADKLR
Experimental: NDM-1 is produced and purified as disclosed in Yong et al, Antimicrobial Agents & Chemotherapy, (2009) 53(12), 5046-54.
as §1, §2, §3

NTBC039 = assay: MIC of meropenem in presence of the inhibitor, broth microdilution; type: cell-based; settings: compound at 100 μM, 37° C., 18-20 h
[1] = tested on: NTBC023 strain: Klebsiella pneumoniae producing VIM-1+SHV-5; assay: as above; type: cell-based; settings: compound at 100 μM, 37° C., 18-20 h
Experimental: (§4) The minimal inhibitory concentration (MIC) of meropenem in presence of the inhibitor is routinely assessed against 3 representative clinical strains: • NTBC020 Strain: Escherichia coli producing NDM-1+TEM-1+CTX-M-15, (isolated in Australia in 2009); • NTBC023 strain: Klebsiella pneumoniae producing VIM-1+SHV-5, (isolated in France in 2002); • NTBC062 strain: Klebsiella pneumoniae producing IMP-1+TEM-1, (isolated in France in 2012);
(§5) The assay was performed according to the standard broth microdilution method described by the Clinical and Laboratory Standards Institute (CLSI-M7-A7—Methods for dilution antimicrobial susceptibility tests for bacteria that grow aerobically; Approved standard; CLSI, Wayne, Pa., USA. 2006). This method involves the use of small volumes of broth dispensed in sterile, plastic 96-wells microdilution plates. The compounds were tested at a concentration of 100 μM and controls included the susceptibility tests for the three selected strains without the compounds and for the two reference strains E. coli ATCC 25922 and Pseudomonas aeruginosa ATCC 27853 as Quality Controls.
(§6) From a stock solution at 20 mM in DMSO, compounds were prepared by diluting 0.04 mL of the compound solution in 0.04 mL of Mueller-Hinton (MH) broth (2-fold dilution). Then, 0.001 mL of the compound dilution was distributed in the 96-wells microdilution plates to give a final concentration of 100 μM for a final volume of 0.1 mL by well.
(§7) From a meropenem stock solution at 10 mg/ml in water, meropenem 2-fold serial dilutions were prepared in MH broth at twice the desired final concentrations, e.g from 512 to 0.0037 μg/ml. The 96-wells microdilution plates were then filled with 0.05 mL of the meropenem dilutions. For each susceptibility test, two wells were left free of antibiotic and filled with 0.05 mL of sterile MH broth to serve as growth controls.
(§8) The bacterial inoculum was prepared by direct colony suspension from a 24 h-agar plate in saline solution (NaCl 9 g/L). The suspension was adjusted to a 0.5 MacFarland turbidity standard (1-2×10^8 CFU/mL) and then diluted 1:100 in MH broth. 0.05 mL of the bacterial dilution was then inoculated to each well giving a final volume of 0.1 mL and a final bacterial concentration of approximately 5×10^5 CFU/mL.
(§9) Microdilution plates were incubated at 37° C. in an ambient air incubator for 18-20 h.

[2] = tested on: NTBC020 Strain: Escherichia coli producing NDM-1+TEM-1+CTX-M-15; assay: as above; type: cell-based; settings: compound at 100 μM, 37° C., 18-20 h
Experimental: as §4, §5, §6, §7, §8, §9

T1 sequence (P52699 19-246, species assumed): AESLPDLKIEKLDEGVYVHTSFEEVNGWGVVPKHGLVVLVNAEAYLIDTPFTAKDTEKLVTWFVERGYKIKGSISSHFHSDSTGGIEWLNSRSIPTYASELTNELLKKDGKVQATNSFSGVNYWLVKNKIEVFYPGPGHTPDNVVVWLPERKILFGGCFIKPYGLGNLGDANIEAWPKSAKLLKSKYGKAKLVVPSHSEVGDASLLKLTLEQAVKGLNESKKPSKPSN

| SMILES | pKi (IMP-1) | pKi (VIM-2) | pKi (NDM-1) | MIC of meropenem, strain NTBC039 (NTBC039) [µg/mL] | MIC of meropenem, strain NTBC023 [1] [µg/mL] | MIC of meropenem, strain NTBC020 [2] [µg/mL] |
| --- | --- | --- | --- | --- | --- | --- |
| CN(Cc1ccccc1)S(=O)(=O)Nc1scnc1C(=O)O [Compound 77, 5-{[benzyl(methyl)sulfamoyl]amino}-1,3-thiazole-4-carboxylic acid] | 6.92 | 7.52 | 5.89 | – | – | – |
| O=C(O)c1ncsc1NS(=O)(=O)c1ccc(C2CCNCC2)cc1 [Compound 118, 5-{[4-(piperidin-4-yl)phenyl]sulfonamido}-1,3-thiazole-4-carboxylic acid] | – | – | – | 4 | 8 | 4 |
| O=C(O)c1ncsc1NS(=O)(=O)c1ccc(-c2ccccc2)s1 [Compound 20, 5-(5-phenylthiophene-2-sulfonamido)thiazole-4-carboxylic acid] | 7.00 | 6.32 | 6.03 | – | – | – |
| CN(c1ccccc1)S(=O)(=O)Nc1scnc1C(=O)O [Compound 88, 5-{[methyl(phenyl)sulfamoyl]amino}-1,3-thiazole-4-carboxylic acid] | 6.24 | 6.80 | 6.00 | – | – | – |
| Cc1c(S(=O)(=O)Nc2scnc2C(=O)O)cnn1-c1ccccc1 [Compound 81, 5-[(5-methyl-1-phenyl-1H-pyrazol-4-yl)sulfonamido]-1,3-thiazole-4-carboxylic acid] | 6.39 | 7.52 | 6.89 | – | – | – |
| CC(c1ccccc1)S(=O)(=O)Nc1scnc1C(=O)O (stereo not drawn) [Compound 60, 5-[(1-phenylethyl)sulfonamido]-1,3-thiazole-4-carboxylic acid] | 7.15 | 7.00 | 6.10 | – | – | – |
| O=C(O)c1ncsc1NS(=O)(=O)Cc1ccccc1 [Compound 5, 5-(phenylmethylsulfonamido)thiazole-4-carboxylic acid] | 7.30 | 6.68 | 5.60 | – | – | – |
| O=C(O)c1ncsc1NS(=O)(=O)c1cccnc1 [Compound 67, 5-(pyridine-3-sulfonamido)-1,3-thiazole-4-carboxylic acid] | – | – | – | 8 | 16 | 1 |
| Cc1nc(C(=O)O)c(NS(=O)(=O)Cc2ccccc2)s1 [Compound 50, 5-benzylsulfonamido-2-methyl-1,3-thiazole-4-carboxylic acid] | 7.22 | 6.59 | 5.77 | – | – | – |
| O=C(O)c1ncsc1NS(=O)(=O)Cc1cccc(F)c1F [Compound 124, 5-{[(2,3-difluorophenyl)methyl]sulfonamido}-1,3-thiazole-4-carboxylic acid] | – | – | – | 0.25 | 4 | 4 |
| O=C(O)c1ncsc1NS(=O)(=O)C1CCc2ccccc21 (stereo not drawn) [Compound 104, 5-(2,3-dihydro-1H-indene-1-sulfonamido)-1,3-thiazole-4-carboxylic acid] | – | – | – | 2 | 4 | 16 |
| O=C(O)c1ncsc1NS(=O)(=O)c1ccc(-n2cccn2)cc1 [Compound 94, 5-{[4-(1H-pyrazol-1-yl)phenyl]sulfonamido}-1,3-thiazole-4-carboxylic acid] | – | – | – | 4 | 8 | 16 |
| O=C(O)c1ncsc1NS(=O)(=O)CCN1C(=O)c2ccccc2C1=O [Compound 63, 5-{[2-(1,3-dioxo-2,3-dihydro-1H-isoindol-2-yl)ethyl]sulfonamido}-1,3-thiazole-4-carboxylic acid] | 5.77 | 6.89 | 6.22 | – | – | – |
| O=C(O)c1ccccn1 [Pyridine-2-carboxylic acid, pyridine-2-carboxylic acid, reference compound] | 3.52 | 6.00 | 5.52 | – | – | – |
| O=C(O)c1ncsc1NS(=O)(=O)CCCc1ccccc1 [Compound 101, 5-[(3-phenylpropyl)sulfonamido]-1,3-thiazole-4-carboxylic acid] | – | – | – | 1 | 8 | 32 |
| O=C(O)c1ncsc1NS(=O)(=O)N1CCCCC1 [Compound 75, 5-[(piperidine-1-sulfonyl)amino]-1,3-thiazole-4-carboxylic acid] | 6.03 | 6.47 | 5.68 | – | – | – |
| O=C(O)c1ncsc1NS(=O)(=O)Cc1cc2c(cc1Cl)OCO2 [Compound 144, 5-[(6-chloro-2H-1,3-benzodioxol-5-yl)methylsulfonamido]-1,3-thiazole-4-carboxylic acid] | – | – | – | 1 | 8 | 16 |
| O=C(O)c1ncsc1NS(=O)(=O)Cc1cccc(Cl)c1Cl [Compound 48, 5-{[(2,3-dichlorophenyl)methyl]sulfonamido}-1,3-thiazole-4-carboxylic acid] | – | – | – | 0.25 | 2 | 4 |
| O=C(O)c1nc(C(F)(F)F)sc1NS(=O)(=O)Cc1ccccc1Cl [Compound 96, 5-{[(2-chlorophenyl)methyl]sulfonamido}-2-(trifluoromethyl)-1,3-thiazole-4-carboxylic acid] | 5.92 | 6.46 | 5.57 | – | – | – |
| O=C(O)c1ncsc1NS(=O)(=O)N1CCc2ccccc21 [Compound 147, 5-[(2,3-dihydroindole-1-sulfonyl)amino]-1,3-thiazole-4-carboxylic acid] | – | – | – | 4 | 16 | 8 |
| CC(=O)Nc1ccc(S(=O)(=O)Nc2scnc2C(=O)O)cc1 [Compound 78, 5-[(4-acetamidophenyl)sulfonamido]-1,3-thiazole-4-carboxylic acid] | 7.30 | 6.40 | 6.80 | – | – | – |
| O=C(O)c1nc(-c2ccccc2)sc1NS(=O)(=O)c1ccccc1 [Compound 58, 5-benzenesulfonamido-2-phenyl-1,3-thiazole-4-carboxylic acid] | 7.15 | 6.10 | 5.64 | – | – | – |
| O=C(O)c1ncsc1NS(=O)(=O)CC1CCCCC1 [Compound 69, 5-(cyclohexylmethyl)sulfonamido-1,3-thiazole-4-carboxylic acid] | – | – | – | 1 | 4 | 16 |
| O=C(O)c1ncsc1NS(=O)(=O)CCc1cccnc1 [Compound 151, 5-[2-(pyridin-3-yl)ethylsulfonamido]-1,3-thiazole-4-carboxylic acid] | 5.74 | 7.00 | 5.49 | – | – | – |
| O=C(O)c1ncsc1NS(=O)(=O)CCc1ccccc1 [Compound 7, 5-(2-phenylethylsulfonamido)thiazole-4-carboxylic acid] | 7.52 | 7.10 | 6.12 | – | – | – |
| O=C(O)c1ncsc1NS(=O)(=O)c1ccccc1Cl [Compound 66, 5-[(2-chlorophenyl)sulfonamido]-1,3-thiazole-4-carboxylic acid] | – | – | – | 8 | 8 | 16 |
